Where two headings read alike, the source gives them in different places.
What was measured:
[1] = system: patients after severe aneurysmal SAH (WFNS grade 3, 4 or 5)
Protocol: (§1) Sedative drug levels, muscle relaxants and vasopressors were documented and changes in infusion rates were minimised for the duration of the recording.
The patients also underwent simultaneous transcranial Doppler (TCD) monitoring. Insonation of the MCA M1 segment was performed unilaterally on the side with the best window using colour-coded duplex ultrasound (EZ-Dop, DWL; 2 Mz probe).
The patient's PETCO2, end-tidal O2, ABP and SpO2 were recorded continuously and collected on a Power-1401 data acquisition interface (Cambridge Electronic Design). […] Arterial CO2 values were collected once during the duration of the recording as part of routine clinical care.
Waveform analysis was performed using custom written MATLAB code, enabling calculation of average pre and during infusion values for TCD middle cerebral artery velocity (MCAV) ABP, PETCO2, end-tidal O2 and ICP.

[2] = system: patients after severe aneurysmal SAH (WFNS grade 3, 4 or 5); conditions: for percentage change in ADR, median: (during infusion-baseline)/baseline x100; for mean percentage change from baseline ADR over time, FIG. 3: after commencement of the nitrite infusion
Description: Patients aged 18-80 years admitted to the Neurosciences Intensive Care Unit (NICU) at the John Radcliffe Hospital, Oxford after having suffered severe aneurysmal SAH (WFNS grade 3, 4 or 5 at time of presentation) were eligible for inclusion in the study. There were no specific selection criteria apart from grade of SAH, and the absence of any exclusion criteria (see below).
Following definitive endovascular aneurysm treatment, each patient underwent a two hour period of continuous EEG monitoring (Porti 7 system, Twente Medical Systems International) on one occasion as soon as was practically possible after endovascular securing of the aneurysm.
as §1
We used a simplified EEG montage that aimed for compromise between stable maintenance of recording and full coverage of all vascular territories. Consequently, 7-13 unipolar EEG electrodes (depending on the presence of external ventricular drains and intracranial pressure (ICP) monitors) at the following positions defined according to the international 10-20 system: Cz, Fz, Pz, Fp1, Fp2, F3, F4, P3, P4, T3, T4, O1, O2. EEG data were digitized at a sampling rate of 2048 Hz, with a high pass filter of 0.5 Hz and a low pass filter of 30 Hz.
Each surviving patient was followed up at three to six months post-rupture. Telephone follow up was performed for patients who were unable to attend hospital due to their clinical status. Primary outcome was measured by the presence or absence of delayed ischemia. Long term outcome was assessed by modified Rankin scale at 3 months, via structured standardised questions in person or by telephone. The modified Rankin scale, is a commonly used grading system that measures the degree of disability or dependence in the daily activities of people who have suffered a neurological insult. Good outcome is defined as a score of 0-2, whereas poor outcome is defined as ≥3.
Inc.) code and the EEGLAB v13.4.3b analysis toolbox. Datasets were re-referenced to the average of bilateral mastoid reference electrodes and band pass filtered from 0.5 to 15 Hz using a linear finite impulse response (FIR) filter. Each EEG recording was visually inspected and artefacts were manually removed. Channels showing evidence of excessive amounts of noise were removed from each recording.
Spectral analysis was carried out using FieldTrip, a MATLAB software toolbox for EEG analysis. Data was windowed into 30-second segments that overlapped by 50%. Time-frequency analysis was performed using a multi-taper spectral estimation using discrete prolate spheroidal (Slepian) sequences with 14 tapers, and fast Fourier transform algorithm for each electrode channel. Five 60-second epochs were selected randomly from the first (baseline) and last thirty minutes of the recording (during infusion). The epochs were separated by at least 60 seconds to avoid autocorrelation. The corresponding frequency distribution in each epoch was identified, which enabled determination of power values in the following frequency bands: delta 1-4 Hz, alpha 8-12 Hz and total low frequency power 1-15 Hz.
Statistical analysis was carried out using R and the analysis package nlme. We applied a two level linear mixed effects multilevel model to the data to allow for within patient correlation due to repeated measures on each patient over time. […] A qqnorm plot was used to identify any outliers and these were subsequently eliminated from the model. Goodness of fit was assessed via Shapiro-Wilk normality tests on fixed and random effect residuals, and calculation of R^2 for the model.

In the case of O=NO [sodium nitrite], the “mean MAP in response to sodium nitrite” value ([1]; 14 patients, from a mean MAP of 87 mmHg, p=0.026) is reported as 84 mmHg, the “change in TCD, MCAV as a result of sodium nitrite infusion” value ([1]; pre versus during infusion) is reported as “no significant changes” and the “change in ICP as a result of sodium nitrite infusion” value ([1]; pre versus during infusion, 10 patients) is reported as “no significant changes”. The “change in end tidal CO2 as a result of sodium nitrite infusion” value ([1]; pre versus during infusion, 13 patients) was “no significant changes”, the “percentage change in ADR, median” value ([2]; good outcome group) was “increases” and the “mean percentage change from baseline ADR over time, FIG. 3” value ([2]; good outcome group) was “increases”. The “ADR during infusion, median” value ([2]; good outcome group, baseline median 0.03) was 0.05, the “delta power response to a 1-hour infusion (discussion)” value ([2]; patients with good outcome) was “significant increase” and the “percentage change in ADR, median” value ([2]; poor outcome group) was “no significant differences”. For the same compound, the “mean percentage change from baseline ADR over time, FIG. 3” value ([2]; poor outcome group) was “does not change” and the “baseline versus during infusion ADR” value ([2]; poor outcome patients (mRS >=3)) was “no significant differences”.

Reference: patent publication US11077209B2, “Use of cerebral nitric oxide donors in the assessment of the extent of brain dysfunction following injury” (OXFORD UNIVERSITY INNOVATION LIMITED, priority 2016, dated 2021)
